Like-named read-outs stand apart in the source and are kept apart here.

What is called EC50 is the midpoint of the concentration-response curve. The IC50 is the point on the concentration scale where inhibition reaches its midpoint. A high value points to weaker potency in that assay.

In one test the test system is Th17 cells. Put plainly: Th17 Assay (IL-17 levels in supernatants of differentiating Th17 cells). It is filed as cell-based. The settings on record: 168 h; human naive CD4+ T cells differentiated to Th17 for seven days; IL-17 in supernatants by ELISA. The procedure:
The following modifications were made to the manufacturer's protocol: 1) Incubation with Biotin-Antibody Cocktail and Anti-Biotin MicroBeads was prolonged to 30 minutes, and 2) Cells were washed with 40 mL of Miltenyi buffer. […] Test compounds were tested in triplicates, diluted 1000-fold in medium (final DMSO concentration is 0.1%). Incubated for seven days at 37° C., 5% CO2, 95% humidity, and 2-fluoro-4′-[[4-(4-pyridinylmethyl)-1-piperazinyl]methyl]-α,α-bis(trifluoromethyl)-[1,1′-biphenyl]-4-methanol (SR2211 Calbiochem, Cat. No. 557353) was used as positive control. As negative control, cells were differentiated into Th0 using 5 μg/ml anti-CD28 (BD Pharmingen), 10 ng/ml IL-2 (R&D Systems), 2 μg/ml anti-ILA (R&D Systems) and 2 μg/ml anti-IFNγ (R&D Systems) are negative control. IL-17 levels in supernatants were measured with ELISA (R&D Systems).
In general terms: In an ELISA, binding on a coated surface is turned into a signal by an enzyme label.

Test [1] deals with T1, RORγ ligand-binding domain fused to Gal4 (Homo sapiens, UniProt P51449).
T1 construct: Gal4 (galactose-responsive transcription factor); expressed in transfected cells; host or cells: HEK293
T1 sequence (P51449 269-508 limits assumed): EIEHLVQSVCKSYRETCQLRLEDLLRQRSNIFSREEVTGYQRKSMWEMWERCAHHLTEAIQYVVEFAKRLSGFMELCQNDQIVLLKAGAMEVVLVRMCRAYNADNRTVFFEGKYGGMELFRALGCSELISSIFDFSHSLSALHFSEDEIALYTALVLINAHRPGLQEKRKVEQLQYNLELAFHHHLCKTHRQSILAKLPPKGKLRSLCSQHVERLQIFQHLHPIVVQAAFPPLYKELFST
Put plainly: RORγ Reporter Assay (Gal4). It is filed as cell-based. The settings on record: compounds of the present disclosure, read-out: Gal4 assay EC50. A digest of the protocol: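 HEK293 cells transiently co-transfected with the Gal4-fused RORγ LBD and a UAS-luciferase reporter were exposed to compounds for 24 h at 37 °C (0.1% DMSO final). Luminescence was read, and percent reduction of RORγ activity was calculated relative to vehicle-average RLU.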
For orientation: Reporter assays use an easily measured gene product as a stand-in for the process of interest.

The subject of test [2] is Collagen-induced arthritis. Put plainly: Collagen-induced arthritis (CIA) study. Type of test: in vivo. The settings on record: 3 mpk p.o. b.i.d.; DBA/1J mice. The procedure: Collagen-induced arthritis is an animal model of rheumatoid arthritis used to evaluate the efficacy of test compounds. CIA was induced at Washington Biotechnology Inc. (Baltimore) in male DBA/1J mice (Jackson Laboratories) by subcutaneous injection at the base of the tail with 50 μl of a bovine collagen/complete Freund's adjuvant emulsion. After 21 days, the mice were further boosted by a further subcutaneous injection of 50 μl of a collagen/incomplete Freund's adjuvant emulsion. For treatment, compound or vehicle (2% DMSO, 10% HP-β-CD in MilliQ water) was given orally twice daily at various doses selected from 3, 10, 30 mg/kg, beginning at the day of CIA induction (Prophylactic setting), or after disease initiation (at day 27, therapeutic setting). Treatment lasted until day 41, and the animals were scored three times weekly. Each paw was scored and the sum of all four scores was recorded as the Arthritic Index (AI). The maximum possible AI was 16. 0=no visible effects of arthritis; 1=edema and/or erythema of one digit; 2=edema and/or erythema of 2 joints; 3=edema and/or erythema of more than 2 joints; 4=severe arthritis of the entire paw and digits including limb deformation and ankylosis of the joint. The Arthritis Index for each treatment can be expressed as the mean score for each treatment group+/−S.E.M.

For test [3], the system named is IL-17A secretion in activated PBMCs. Put plainly: IL-17A secretion in activated PBMCs. It is filed as cell-based, human. The note with it: Homo sapiens, PBMC, 48 h, human PBMCs stimulated with CD3/CD28 Dynabeads for 48 h; absolute IC50. The essentials:
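Human PBMCs from healthy donors, 40,000 cells/well, were preincubated 30 min with compound in 10-point 5-fold dilutions (0.1% DMSO), then stimulated 48 h at 37° C with CD3/CD28 beads (1:1). Supernatant IL-17A was read by bead immunoassay on a flow cytometer. Inhibition was normalized to activated DMSO (top) and GNE09461 10 μM (basal).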

A further test has as its system plasma IL-17A. Nature of the test: In vivo IL-17A induction in anti-CD3 model in mice. The settings on record: oral gavage twice daily day 0 to day 3, C57BL/6JRj mice. The procedure: Male C57BL/6JRj mice (7 week old) were purchased from Janvier Labs and housed at the animal facilities of Almirall throughout the study. Animals were allowed to condition for 5 days in their new environment at 22° C.±2° C., 55%±10% relative humidity and 12 h: 12 h light:dark cycles. Animals were housed in polycarbonate cages, with free access to water and non-purified stock diet (2014 Teklad Global 14% Protein Rodent Maintenance Diet, Envigo) during the full course of the studies. Care of animals was undertaken in compliance with the European Committee Directive 2010/63/EU, and the Catalan and Spanish law. All procedures were performed according to the ARRIVE guidelines (Animal Research: Reporting of In Vivo Experiments) and with approval from the Animal Experimentation Ethical Committee of Almirall (Barcelona, Spain).
Mice were injected intraperitoneally with 7.5 μg of anti-CD3e (Clone 145-2C11 from Pharmingen BD) at 0 h (day 0) and […] (day 3) time-points. The non-induced-group were injected with PBS instead of anti-CD3e. At study completion (4 h after anti-CD3e injection), animals were anaesthetized with isofluorane (Baxter) and 0.5-1 mL blood samples were drawn by intracardiac puncture in heparinized tubes. Plasma samples were stored at −80° C. for subsequent analysis.
Test compounds were freshly suspended in sterile 0.5% methylcellulose 0.1% tween-80 solution (10 mL/kg body weight). […]
Plasma levels of IL-17A were measured by ELISA (R&D Systems) according to the manufacturer's instruction. Results were calculated as the percentage of reduction of plasma IL-17A versus the difference between non-induced and anti-CD3e induced groups through the formula: inhibition=100*[1−[(x−mean non-induced)/(mean control vehicle−mean non-induced)]]. The IL-17A inhibition for each treatment can be expressed as the mean for each treatment group±S.E.M. Statistical analysis of data were conducted with one-way ANOVA followed by Dunnett's multiple comparisons test when appropriate. […]

With `NC(=O)CN1CCC(CNc2ncnc(N(Cc3ccc(C(F)(F)F)cn3)C3CC3)c2F)C(F)(F)C1` (single isomer, unassigned) [Example A7-03-1], the concentration for a half-maximal effect (EC50) in the test on Th17 cells is 83 nM; in test [1] (value from Table 2 herein), less than 100 nM.

Turning to `NC(=O)CN1CC[C@@H](CNc2ncnc(N(Cc3ccc(C(F)(F)F)cc3)C3CC3)c2F)[C@H](O)C1` (single isomer, unassigned) [Example A7-01-1], in test [2], the “reduction in AI (Arthritic Index) as compared to the anti-IL-17A antibody” value is 74%. The compound further showed an IC50 in test [3] of 6.3 nM. The “Inhibition of IL-17A (%) at 3 mg/kg” value in the test with plasma IL-17A is recorded as 80%. In test [1] (source: Table 2 herein), the EC50 is less than 100 nM.

For the origin of these results see patent US12441704B2, “Compounds active towards nuclear receptors” (NUEVOLUTION A/S, priority 2019, dated 2025).
